{"source": "ChEMBL document CHEMBL1152306", "about": "“Characterization of novel furan compounds on the basis of their radical scavenging activity and cytoprotective effects against glutamate- and lipopolysaccharide-induced insults” (Bioorg Med Chem, 2008)", "key": {"[1]": {"assay": "Radical scavenging activity assessed as relative reactivity against beta-carotene in 2,2-azobis[2-(2-imidazolin-2-yl)-propane]dihydrochloride solution", "format": "physicochemical"}, "[2]": {"assay": "Radical scavenging activity assessed as rate constant", "format": "physicochemical"}, "[3]": {"biological_target": "T1, Polyunsaturated fatty acid 5-lipoxygenase (Homo sapiens, UniProt P09917)", "T1 sequence (P09917 whole entry)": "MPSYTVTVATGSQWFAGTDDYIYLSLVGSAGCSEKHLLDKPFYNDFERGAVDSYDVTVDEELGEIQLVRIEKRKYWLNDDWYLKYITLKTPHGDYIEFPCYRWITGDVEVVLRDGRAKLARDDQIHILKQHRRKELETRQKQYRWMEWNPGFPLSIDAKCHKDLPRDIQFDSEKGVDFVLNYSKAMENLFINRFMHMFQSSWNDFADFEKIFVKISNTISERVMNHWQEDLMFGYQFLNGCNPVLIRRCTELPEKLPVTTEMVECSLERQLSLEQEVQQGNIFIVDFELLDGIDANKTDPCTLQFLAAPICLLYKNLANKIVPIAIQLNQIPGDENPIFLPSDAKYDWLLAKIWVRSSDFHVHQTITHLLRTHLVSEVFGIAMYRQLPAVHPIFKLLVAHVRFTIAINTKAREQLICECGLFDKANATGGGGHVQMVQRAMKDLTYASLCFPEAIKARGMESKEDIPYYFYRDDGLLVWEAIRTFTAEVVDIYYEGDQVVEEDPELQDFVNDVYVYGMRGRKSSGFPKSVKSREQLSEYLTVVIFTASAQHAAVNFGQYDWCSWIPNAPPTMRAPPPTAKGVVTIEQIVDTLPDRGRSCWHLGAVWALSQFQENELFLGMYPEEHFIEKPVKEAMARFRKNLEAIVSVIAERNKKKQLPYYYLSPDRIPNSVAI", "assay": "Inhibition of 5LOX"}, "[4]": {"biological_target": "Prostaglandin G/H synthase 1 (Homo sapiens, UniProt P23219)", "sequence (P23219 whole entry)": "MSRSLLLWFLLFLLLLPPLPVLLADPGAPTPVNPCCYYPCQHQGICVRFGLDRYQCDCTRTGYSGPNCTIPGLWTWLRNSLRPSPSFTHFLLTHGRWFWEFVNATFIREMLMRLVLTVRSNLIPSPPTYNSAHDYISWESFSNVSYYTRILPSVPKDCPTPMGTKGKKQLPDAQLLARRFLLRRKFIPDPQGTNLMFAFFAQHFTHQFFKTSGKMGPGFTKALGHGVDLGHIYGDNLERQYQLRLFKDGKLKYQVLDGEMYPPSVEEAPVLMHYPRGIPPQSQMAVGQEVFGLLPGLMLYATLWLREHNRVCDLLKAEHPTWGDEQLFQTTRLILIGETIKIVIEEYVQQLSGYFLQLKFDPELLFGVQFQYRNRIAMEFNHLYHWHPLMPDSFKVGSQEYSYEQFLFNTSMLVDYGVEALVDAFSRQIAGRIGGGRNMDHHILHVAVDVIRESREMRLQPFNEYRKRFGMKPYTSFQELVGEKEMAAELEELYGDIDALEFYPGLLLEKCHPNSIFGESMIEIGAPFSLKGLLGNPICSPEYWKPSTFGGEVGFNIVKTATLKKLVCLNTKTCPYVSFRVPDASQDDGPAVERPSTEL", "assay": "Inhibition of COX1"}, "PC-12 [5]": {"tested_on": "PC-12", "assay": "Cytoprotective activity against LPS-induced cell death in rat PC12 cells at 1 to 50 uM pretreated for 24 hrs prior to LPS challenge measured after 24 hrs by MTT assay", "format": "functional, cell-based"}, "[6]": {"biological_target": "T2, Prostaglandin G/H synthase 2 (Homo sapiens, UniProt P35354)", "T2 sequence (P35354 whole entry)": "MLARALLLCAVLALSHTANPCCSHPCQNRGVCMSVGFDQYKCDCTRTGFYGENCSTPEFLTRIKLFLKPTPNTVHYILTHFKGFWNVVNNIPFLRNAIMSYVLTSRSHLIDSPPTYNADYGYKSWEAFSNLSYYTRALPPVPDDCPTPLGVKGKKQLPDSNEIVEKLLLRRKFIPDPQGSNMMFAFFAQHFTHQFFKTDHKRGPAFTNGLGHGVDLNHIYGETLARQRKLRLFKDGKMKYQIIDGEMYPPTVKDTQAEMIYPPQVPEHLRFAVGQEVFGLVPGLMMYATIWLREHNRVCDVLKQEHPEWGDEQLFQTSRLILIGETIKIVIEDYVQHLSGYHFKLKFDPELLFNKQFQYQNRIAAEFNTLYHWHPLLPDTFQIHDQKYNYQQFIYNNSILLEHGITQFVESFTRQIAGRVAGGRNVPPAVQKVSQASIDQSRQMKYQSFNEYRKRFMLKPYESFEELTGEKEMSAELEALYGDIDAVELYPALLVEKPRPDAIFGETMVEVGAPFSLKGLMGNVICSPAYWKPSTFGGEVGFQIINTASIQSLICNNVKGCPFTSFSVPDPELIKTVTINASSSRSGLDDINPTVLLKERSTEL", "assay": "Inhibition of COX2"}, "[7]": {"assay": "Radical scavenging activity assessed as relative reactivity against beta-carotene in benzene solution", "format": "physicochemical"}, "[8]": {"assay": "Radical scavenging activity assessed as suppression of MeO-AMVN-induced beta-carotene oxidation in benzene solution", "format": "physicochemical"}, "PC-12 [9]": {"tested_on": "PC-12", "assay": "Cytoprotective activity against 6-OHDA-induced cell death in rat PC12 cells at 50 uM pretreated for 24 hrs prior to 6-OHDA challenge measured after 24 hrs by MTT assay", "format": "functional, cell-based"}, "[10]": {"assay": "Radical scavenging activity assessed as relative reactivity against beta-carotene in MeO-AMVN solution", "format": "physicochemical"}, "PC-12 [11]": {"tested_on": "PC-12", "assay": "Cytoprotective activity against 13(S)-HpODE-induced cell death in rat PC12 cells pretreated for 24 hrs prior to 13(S)-HpODE challenge measured after 24 hrs by MTT assay", "format": "functional, cell-based"}, "PC-12 [12]": {"tested_on": "PC-12", "assay": "Cytoprotective activity against 6-OHDA-induced cell death in rat PC12 cells at 25 uM pretreated for 24 hrs prior to 6-OHDA challenge measured after 24 hrs by MTT assay", "format": "functional, cell-based"}, "THP-1": {"tested_on": "THP-1", "assay": "Cytoprotective activity against LPS-induced cell death in human THP1 cells at 10 uM pretreated for 24 hrs prior to LPS challenge measured after 24 hrs by MTT assay", "format": "functional, cell-based"}, "Cerebral cortex neuron [13]": {"tested_on": "Cerebral cortex neuron", "assay": "Neuroprotective activity against glutamate-induced neuronal cell death in Sprague-Dawley rat primary cortical neuron at 2.5 uM pretreated for 24 hrs prior to glutamate challenge measured after 24 hrs by MTT assay", "format": "functional, cell-based"}, "Cerebral cortex neuron [14]": {"tested_on": "Cerebral cortex neuron", "assay": "Neuroprotective activity against glutamate-induced neuronal cell death in Sprague-Dawley rat primary cortical neuron at 1 uM administered simultaneously with glutamate after 24 hrs by MTT assay", "format": "functional, cell-based"}, "Cerebral cortex neuron [15]": {"tested_on": "Cerebral cortex neuron", "assay": "Neuroprotective activity against glutamate-induced neuronal cell death in Sprague-Dawley rat primary cortical neuron at 1 uM pretreated for 24 hrs prior to glutamate challenge measured after 24 hrs by MTT assay", "format": "functional, cell-based"}, "Cerebral cortex neuron [16]": {"tested_on": "Cerebral cortex neuron", "assay": "Neuroprotective activity against glutamate-induced neuronal cell death in Sprague-Dawley rat primary cortical neuron at 0.25 uM pretreated for 24 hrs prior to glutamate challenge measured after 24 hrs by MTT assay", "format": "functional, cell-based"}, "Cerebral cortex neuron [17]": {"tested_on": "Cerebral cortex neuron", "assay": "Neuroprotective activity against glutamate-induced neuronal cell death in Sprague-Dawley rat primary cortical neuron at 0.25 uM administered simultaneously with glutamate after 24 hrs by MTT assay", "format": "functional, cell-based"}}, "note": "Activity calls are given as the source filed them. The rule behind the calls is not given here.", "data": [{"smiles": "CCc1ccc(-c2ccc(O)c(OC)c2)o1", "values": [{"measurement": "Activity", "setting": "[1]", "value": 0.69}, {"measurement": "K", "setting": "[2]", "value": 2, "unit": "×10⁴ /M/s"}, {"measurement": "IC50", "setting": "[3]", "value": 0.53, "unit": "µM"}, {"measurement": "IC50", "setting": "[4]", "value": 13, "unit": "µM"}, {"measurement": "Activity", "setting": "PC-12 [5]", "value": "Active"}, {"measurement": "IC50", "setting": "[6]", "value": 9.4, "unit": "µM"}, {"measurement": "Activity", "setting": "[7]", "value": 0.58}, {"measurement": "Activity", "setting": "[8]", "value": "Dose-dependent effect"}, {"measurement": "Activity", "setting": "PC-12 [9]", "value": "Active"}, {"measurement": "Activity", "setting": "[10]", "value": 1.1}, {"measurement": "Activity", "setting": "PC-12 [11]", "value": "Active"}, {"measurement": "Activity", "setting": "PC-12 [12]", "value": "Active"}, {"measurement": "Activity", "setting": "THP-1", "value": "Active"}]}, {"smiles": "Cc1c(C)c2c(c(C)c1O)CC[C@@](C)(CCC[C@H](C)CCC[C@H](C)CCCC(C)C)O2", "note": "[ALPHA-TOCOPHEROL]", "values": [{"measurement": "Activity", "setting": "Cerebral cortex neuron [13]", "value": "Active"}, {"measurement": "K", "setting": "[2]", "value": 1, "unit": "×10⁶ /M/s"}]}, {"smiles": "CCCCCCc1ccc(-c2ccc(O)c(OC)c2)o1", "values": [{"measurement": "Activity", "setting": "[1]", "value": 1}, {"measurement": "K", "setting": "[2]", "value": 3, "unit": "×10⁴ /M/s"}, {"measurement": "Activity", "setting": "Cerebral cortex neuron [14]", "value": "Active"}, {"measurement": "IC50", "setting": "[3]", "value": 2.6, "unit": "µM"}, {"measurement": "IC50", "setting": "[4]", "value": 62, "unit": "µM"}, {"measurement": "Activity", "setting": "Cerebral cortex neuron [15]", "value": "Active"}, {"measurement": "Activity", "setting": "PC-12 [5]", "value": "Active"}, {"measurement": "IC50", "setting": "[6]", "value": 8.4, "unit": "µM"}, {"measurement": "Activity", "setting": "[7]", "value": 0.62}, {"measurement": "Activity", "setting": "[8]", "value": "Dose-dependent effect"}, {"measurement": "Activity", "setting": "[10]", "value": 1.3}, {"measurement": "Activity", "setting": "PC-12 [11]", "value": "Active"}, {"measurement": "Activity", "setting": "THP-1", "value": "Active"}]}, {"smiles": "CCCCC[C@H](O)CC(=O)CCc1ccc(O)c(OC)c1", "note": "[GINGEROL]", "values": [{"measurement": "IC50", "setting": "[4]", "value": 129, "unit": "µM"}, {"measurement": "IC50", "setting": "[6]", "value": 125, "unit": "µM"}]}, {"smiles": "CCCCC/C=C/C(=O)CCc1ccc(O)c(OC)c1", "note": "[SHOGAOL]", "values": [{"measurement": "IC50", "setting": "[3]", "value": 7.4, "unit": "µM"}]}, {"smiles": "CC(C)=CCC/C(C)=C/CC/C(C)=C/CC[C@]1(C)CCc2c(C)c(O)c(C)c(C)c2O1", "values": [{"measurement": "Activity", "setting": "Cerebral cortex neuron [16]", "value": "Active"}, {"measurement": "Activity", "setting": "Cerebral cortex neuron [17]", "value": "Active"}]}]}
